Test results: paper PMC7059089, “Bioguided Isolation and Structure Identification of Acetylcholinesterase Enzyme Inhibitors from Drynariae Rhizome” (Journal of Analytical Methods in Chemistry, 2020)

Molecular target: T1, AChE (acetylcholinesterase) (Electrophorus electricus, UniProt O42275)
T1 construct: obtained from the head of an electric eel; purchased Shanghai Source Biotech Co. Ltd. (Shanghai, China); host or cells: electric eel tissue (head)
Assay: biochemical
Conditions: UPLC-MS/MS assay, ACh-I substrate, 37°C, 25 min, pH 8.0, n = 6, ± SD; read-out: IC50 against AChE
Excerpt: AChE (acetylcholinesterase, obtained from the head of an electric eel, 500 U), iodized acetylcholine (ACh-I, purity > 98.0%), iodized choline (Ch-I, purity > 98.0%), and Tris-HCl buffer (1 mol/L, pH 8.0) were all purchased from Shanghai Source Biotech Co. Ltd. (Shanghai, China). […] UPLC-grade acetonitrile was obtained from Fisher (Fair Lawn, NJ, USA). Water was purified by redistillation and a Milli-Q® ultrapure water system (Millipore, Bedford, MA, USA). Other chemicals and solvents used were of analytical grade.
AChE inhibition activities of the analytes were determined in vitro by monitoring the transformation from a substrate (ACh-I) to the product (Ch-I) catalyzed AChE, and Ch-I was quantified with UPLC-MS/MS to access the AChE activity. The reaction was conducted in a 100 μL mixture, consisting of 50 μL AChE solution (0.5 U/mL), 45 μL ACh-I solution (400 μg/mL), and 5 μL tested sample or blank Tris solution which were all dissolved in Tris buffer (pH 8.0). The mixture was incubated at 37°C in a thermostatic water bath for 25 min and then terminated by 500 μL acetonitrile at 0°C immediately. The terminal solution was centrifuged at 20,000g for 15 min, and the supernatant was used for UPLC-MS/MS analysis.
The […] inhibition was calculated as follows:(1) inhibition %=Cb−Cs/Cb∗100%. where Cb means the Ch-I concentration incubated without AChE inhibitor and Cs means the Ch-I concentration incubated with inhibitor. The inhibitory activities of the AChE inhibitors were assessed by the IC50 values of tested compounds. Galanthamine was selected as a positive control.
Liquid chromatography analysis was accomplished on an ACQUITY UPLC™ system (Waters Corp., Milford, MA, USA). The chromatographic separation was carried out using an ACQUITY UPLCTM BEH C18 column (2.1 × 50 mm, 1.7 μm) at 30°C. The isocratic elution mobile phase consisted of 0.5% acetic acid (A) and acetonitrile (B) (40 : 60) to guarantee the peak shape of Ch-I.
A Waters® Micromass® Quattro Premier™ XE triple-quadrupole tandem mass spectrometer equipped with an electrospray ionization interface (TQ-ESI) was used for mass spectrometric detection. The positive ESI source operation optimal parameters were capillary voltage 3.0 kV, extractor voltage 3.00 V, skimmer 25.0 V, fragmentor 35 V, octopole Rf peak 3000 v, source temperature 120°C, and desolvation temperature 300°C. Nitrogen was used as the desolvation gas and cone gas at a flow of 600 L/h and 50 L/h, respectively. Argon was used as the collision gas at a pressure of approximately 2.61 × 10^−3 mbar. A multiple reaction monitoring (MRM) mode was used to quantify Ch-I, and the fragments of 104.34 Th and 58.53 Th were selected as the parent ion and daughter ion to obtain accurate quantitation in the mixture containing herb extract. The MS scan rate spectrum was 5000 amu/s, dwell time 5 ms, and m/z range 0–300 Th. All data were acquired and analyzed by Mass Lynx™ NT 4.1 software with the Quan Lynx™ program (Waters, Milford, MA, USA).
The reaction procedure was conducted with reference to Liu's report; moreover, the enzyme constants, steady-state kinetics, reaction temperature, reaction time, substrate concentration, and AChE concentration were investigated and optimized to guarantee the utilization. […] The concentration of AChE in Liu's report was 3.470 U/mL.

T1 sequence (O42275 24-633): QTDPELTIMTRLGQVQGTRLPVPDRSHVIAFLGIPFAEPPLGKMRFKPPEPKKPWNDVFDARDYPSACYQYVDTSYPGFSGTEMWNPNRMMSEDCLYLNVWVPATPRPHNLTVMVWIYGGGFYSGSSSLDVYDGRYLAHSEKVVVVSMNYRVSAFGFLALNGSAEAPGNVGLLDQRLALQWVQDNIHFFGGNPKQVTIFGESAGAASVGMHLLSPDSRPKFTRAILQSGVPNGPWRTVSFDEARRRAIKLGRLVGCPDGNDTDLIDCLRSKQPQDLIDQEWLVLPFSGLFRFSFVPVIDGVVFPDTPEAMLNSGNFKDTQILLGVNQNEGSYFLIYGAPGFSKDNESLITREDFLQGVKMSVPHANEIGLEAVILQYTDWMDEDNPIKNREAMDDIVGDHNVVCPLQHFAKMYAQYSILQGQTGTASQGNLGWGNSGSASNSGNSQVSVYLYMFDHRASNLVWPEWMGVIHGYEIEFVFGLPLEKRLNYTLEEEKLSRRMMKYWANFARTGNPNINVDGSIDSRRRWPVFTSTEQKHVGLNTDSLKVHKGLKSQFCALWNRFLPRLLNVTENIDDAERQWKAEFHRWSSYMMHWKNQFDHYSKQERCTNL

Structure (SMILES) | IC50 [µM]
O=c1c(O[C@@H]2O[C@H](CO)[C@@H](O)[C@H](O)[C@H]2O)c(-c2ccc(O)cc2)oc2cc(O)cc(O)c12 [Astragalin, astragalin] | 18.2 ± 2.33
O=C1C[C@@H](c2ccc(O)c(O)c2)Oc2cc(O)cc(O)c21 [Eriodictyol, eriodictyol] | 7.19 ± 0.62
O=c1cc(-c2ccc(O)c(O)c2)oc2cc(O)cc(O)c12 [Luteolin, luteolin] | 17.3 ± 0.23
O=c1cc(-c2ccc(O)c(O)c2)oc2cc(O[C@@H]3O[C@H](CO)[C@H](O)[C@H](O)[C@H]3O)cc(O)c12 [Luteolin-7-O-β-D-glucoside, luteolin-7-O-β-D-glucoside] | 17.1 ± 1.02
O=C1C[C@@H](c2ccc(O)cc2)Oc2cc(O)cc(O)c21 [Naringenin, naringenin] | 3.81 ± 0.21
C[C@@H]1O[C@@H](O[C@H]2[C@H](Oc3cc(O)c4c(c3)O[C@H](c3ccc(O)cc3)CC4=O)O[C@H](CO)[C@@H](O)[C@@H]2O)[C@H](O)[C@H](O)[C@H]1O [Naringin, naringin] | 26.4 ± 1.17
C[C@@H]1O[C@@H](O[C@H]2[C@H](Oc3cc(O)c4c(c3)O[C@H](c3ccc(O)c(O)c3)CC4=O)O[C@H](CO)[C@@H](O)[C@@H]2O)[C@H](O)[C@H](O)[C@H]1O [Neoeriocitrin, neoeriocitrin] | 22.5 ± 1.25
